From patent US20200361895A1, “NOVEL SULFONAMIDE CARBOXAMIDE COMPOUNDS” (Inflazome Limited, priority 2017, published 2020)
Counter-ions that a name gives are not always drawn.

How the values were obtained:
NLRP3 [1] = target: T1, NLRP3 (Homo sapiens, UniProt Q96P20); assay: THP-1 cells pyroptosis assay (LPS + nigericin, resazurin readout; THP IC50); type: cell-based; set-up: Seed THP-1 cells (25,000 cells/well) containing 1.0 μg/ml LPS in 40 μl of RPMI medium; host or cells: THP-1 cells
Method in brief: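 IC50 from 4-parameter fit of resazurin fluorescence (100 μM, 1-2 hrs), reflecting surviving cells after pyroptosis. LPS-primed (1 μg/ml) THP-1 cells in FBS-free RPMI got compound for 3 hrs at 37° C (top 10 μM, half-log, 8 points), then nigericin 5 μM for 1 hr.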

NLRP3 [2] = target: T1, NLRP3; assay: Human whole blood IL1β release assay (LPS + nigericin, AlphaLisa IL-1β; HWB IC50); type: cell-based; set-up: Human whole blood in Li-heparin tubes was obtained from healthy donors from a volunteer donor panel; from tissue; host or cells: human whole blood from healthy donors; conditions: IL-1β release
Description: For systemic delivery, the ability to inhibit NLRP3 when the compounds are present within the bloodstream is of great importance. For this reason, the NLRP3 inhibitory activity of a number of compounds in human whole blood was investigated in accordance with the following protocol.
Human whole blood in Li-heparin tubes was obtained from healthy donors from a volunteer donor panel. • 1. Plate out 80 μl of whole blood containing 1 μg/ml of LPS in 96-well, clear bottom cell culture plate (Corning #3585) • 2. Add 10 μl compound (8 points half-log dilution with 10 μM top dose) or vehicle (DMSO 0.1% FAC) to the appropriate wells • 3. Incubate for 3 hrs at 37° C., 5% CO2 • 4. Add 10 μl nigericin (Sigma #N7143) (10 μM FAC) to all wells • 5. Incubate for 1 hr at 37° C., 5% CO2 • 6. At the end of the incubation period, spin plates at 300×g for 5 mins to pellet cells and remove 20 μl of supernatant and add to 96-well v-bottom plates for IL-1β analysis (note: these plates containing the supernatants can be stored at −80° C. to be analysed at a later date) • 7. IL-1β was measured according to the manufacturer protocol (Perkin Elmer-AlphaLisa IL-1 Kit AL220F-5000) • 8. IC50 data is fitted to a non-linear regression equation (log inhibitor vs response-variable slope 4-parameters)

T1 sequence (Q96P20 whole entry): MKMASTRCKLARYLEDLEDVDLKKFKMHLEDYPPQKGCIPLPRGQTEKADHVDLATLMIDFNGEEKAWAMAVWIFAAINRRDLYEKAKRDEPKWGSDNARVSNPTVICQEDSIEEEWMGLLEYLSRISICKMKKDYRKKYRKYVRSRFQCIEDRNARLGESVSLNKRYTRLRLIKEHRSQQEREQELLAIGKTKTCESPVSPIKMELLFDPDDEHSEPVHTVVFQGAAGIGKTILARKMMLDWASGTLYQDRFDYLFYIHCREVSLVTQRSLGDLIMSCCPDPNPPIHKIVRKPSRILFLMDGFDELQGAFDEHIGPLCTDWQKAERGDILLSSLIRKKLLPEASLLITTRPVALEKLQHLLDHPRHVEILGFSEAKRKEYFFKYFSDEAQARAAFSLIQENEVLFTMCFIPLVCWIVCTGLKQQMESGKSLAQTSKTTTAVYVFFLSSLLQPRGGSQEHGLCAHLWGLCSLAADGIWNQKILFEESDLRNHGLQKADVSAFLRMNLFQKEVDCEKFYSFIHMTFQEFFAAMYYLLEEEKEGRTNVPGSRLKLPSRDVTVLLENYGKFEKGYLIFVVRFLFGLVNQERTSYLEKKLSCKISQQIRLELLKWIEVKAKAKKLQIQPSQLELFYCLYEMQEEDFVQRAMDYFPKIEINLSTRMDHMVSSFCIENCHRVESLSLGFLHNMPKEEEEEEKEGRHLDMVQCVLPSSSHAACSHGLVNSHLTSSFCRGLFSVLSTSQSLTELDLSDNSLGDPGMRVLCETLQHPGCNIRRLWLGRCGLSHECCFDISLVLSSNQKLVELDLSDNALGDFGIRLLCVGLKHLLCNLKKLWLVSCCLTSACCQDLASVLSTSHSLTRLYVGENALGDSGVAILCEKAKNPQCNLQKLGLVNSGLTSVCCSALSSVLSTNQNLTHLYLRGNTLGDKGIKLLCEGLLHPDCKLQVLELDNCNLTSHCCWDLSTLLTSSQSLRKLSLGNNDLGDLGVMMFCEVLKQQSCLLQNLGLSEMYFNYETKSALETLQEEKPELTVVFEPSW

SMILES | IC50 (NLRP3 [1]) [µM] | IC50 (NLRP3 [2]) [µM]
CC(C)n1cc(S(=O)(=O)NC(=O)Nc2c(-c3ccncc3)cc(F)c3c2CCC3)ccc1=O [Example 91, N-((7-Fluoro-5-(pyridin-4-yl)-2,3-dihydro-1H-inden-4-yl)carbamoyl)-1-isopropyl-6-oxo-1,6-dihydropyridine-3-sulfonamide] | ≤ 0.5 | ≤ 1
COc1cc(-c2cc(F)cc(C3CCCC3)c2NC(=O)NS(=O)(=O)c2ccn(C(C)C)n2)ccn1 [Example 211, N-((2-Cyclopentyl-4-fluoro-6-(2-methoxypyridin-4-yl)phenyl)carbamoyl)-1-isopropyl-1H-pyrazole-3-sulfonamide] | ≤ 0.5 | ≤ 5
N#Cc1cc(-c2ccc3c(c2NC(=O)NS(=O)(=O)c2cnn(CC(F)F)c2)CCC3)ccn1 [Example 231, N-((5-(2-Cyanopyridin-4-yl)-2,3-dihydro-1H-inden-4-yl)carbamoyl)-1-(2,2-difluoroethyl)-1H-pyrazole-4-sulfonamide, sodium salt] | ≤ 0.5 | ≤ 0.5
N#Cc1cc(-c2ccc3c(c2NC(=O)NS(=O)(=O)c2ccn(C4CCOC4)n2)CCC3)ccn1 (stereo not shown) [Example 181, N-((5-(2-Cyanopyridin-4-yl)-2,3-dihydro-1H-inden-4-yl)carbamoyl)-1-(tetrahydrofuran-3-yl)-1H-pyrazole-3-sulfonamide, sodium salt] | ≤ 0.5 | ≤ 0.5
COc1cc(-c2cc(F)cc(C3CC3)c2NC(=O)NS(=O)(=O)c2ccn(C(C)C)n2)ccn1 [Example 210, N-((2-Cyclopropyl-4-fluoro-6-(2-methoxypyridin-4-yl)phenyl)carbamoyl)-1-isopropyl-1H-pyrazole-3-sulfonamide] | ≤ 0.5 | ≤ 5
CC(C)n1ccc(S(=O)(=O)NC(=O)Nc2c(-c3ccnc(Oc4ccccc4)c3)ccc3c2CCC3)n1 [Example 286, 1-Isopropyl-N-((5-(2-phenoxypyridin-4-yl)-2,3-dihydro-1H-inden-4-yl)carbamoyl)-1H-pyrazole-3-sulfonamide, sodium salt] | ≤ 0.5 | ≤ 10
COc1cc(-c2ccc3c(c2NC(=O)NS(=O)(=O)c2ccn(C4CC4)n2)CCO3)ccn1 [Example 248, 1-Cyclopropyl-N-((5-(2-methoxypyridin-4-3-sulfonamide, sodium salt] | ≤ 0.5 | ≤ 0.5
CN(C)CC(C)(C)n1ccc(S(=O)(=O)NC(=O)Nc2c(-c3ccnc(C#N)c3)ccc3c2CCC3)n1 [Example 202, N-((5-(2-Cyanopyridin-4-yl)-2,3-dihydro-1H-inden-4-yl)carbamoyl)-1-(1-(dimethylamino)-2-methylpropan-2-yl)-1H-pyrazole-3-sulfonamide] | ≤ 0.5 | ≤ 0.5
O=C(Nc1c(-c2ccncc2)cc(F)c2c1CCC2)NS(=O)(=O)CCc1ccccc1 [Example 138, N-((7-Fluoro-5-(pyridin-4-yl)-2,3-dihydro-1H-inden-4-yl)carbamoyl)-2-phenylethanesulfonamide] | ≤ 1 | ≤ 10
CC(C)n1cc(S(=O)(=O)NC(=O)Nc2c(-c3ccnc(C#N)c3)ccc3c2CCC3)ccc1=O [Example 71, N-((5-(2-Cyanopyridin-4-yl)-2,3-dihydro-1H-inden-4-yl)carbamoyl)-1-isopropyl-6-oxo-1,6-dihydropyridine-3-sulfonamide, sodium salt] | ≤ 0.5 | ≤ 1
CCn1nc(S(=O)(=O)NC(=O)Nc2c(-c3ccnc(C#N)c3)cc(F)cc2C(C)C)cc1CN(C)C [Example 49, N-((2-(2-Cyanopyridin-4-yl)-4-fluoro-6-isopropylphenyl)carbamoyl)-5-((dimethylamino)methyl)-1-ethyl-1H-pyrazole-3-sulfonamide] | ≤ 0.5 | ≤ 0.5
[2H]C([2H])([2H])Oc1cc(-c2ccc3c(c2NC(=O)NS(=O)(=O)c2ccn(C4CC4)n2)CCO3)ccn1 [Example 278, 1-Cyclopropyl-N-((5-(2-(methoxy-d3)pyridin-4-yl)-2,3-dihydrobenzofuran-4-yl)carbamoyl)-1H-pyrazole-3-sulfonamide, sodium salt] | ≤ 0.5 | ≤ 0.5
COc1cc(-c2ccc3c(c2NC(=O)NS(=O)(=O)c2nc(C)cc(C)n2)CCC3)ccn1 [Example 116, N-((5-(2-Methoxypyridin-4-yl)-2,3-dihydro-1H-inden-4-yl)carbamoyl)-4,6-dimethylpyrimidine-2-sulfonamide] | ≤ 0.5 | ≤ 0.5
COc1cc(-c2ccc3c(c2NC(=O)NS(=O)(=O)c2cnn(C(C)C)n2)CCC3)ccn1 [Example 246, 2-Isopropyl-N-((5-(2-methoxypyridin-4-yl)-2,3-dihydro-1H-inden-4-yl)carbamoyl)-2H-1,2,3-triazole-4-sulfonamide, sodium salt] | ≤ 0.5 | ≤ 1
CCn1nc(S(=O)(=O)NC(=O)Nc2c(-c3cccc(C#N)c3)ccc3c2CCC3)cc1CN(C)C [Example 68, N-((5-(3-Cyanophenyl)-2,3-dihydro-1H-inden-4-yl)carbamoyl)-5-((dimethylamino)methyl)-1-ethyl-1H-pyrazole-3-sulfonamide] | ≤ 0.5 | ≤ 1
CNCC(C)(C)n1ccc(S(=O)(=O)NC(=O)Nc2c(-c3ccnc(OC)c3)ccc3c2CCC3)n1 [Example 197, N-((5-(2-Methoxypyridin-4-yl)-2,3-dihydro-1H-inden-4-yl)carbamoyl)-1-(2-methyl-1-(methylamino)propan-2-yl)-1H-pyrazole-3-sulfonamide, sodium salt] | ≤ 0.5 | ≤ 0.5
COCCN(CCOC)C(=O)c1cc(S(=O)(=O)NC(=O)Nc2c(-c3ccnc(OC(C)C)c3)cc(F)cc2C(C)C)nn1C [Example 166, 3-(N-((4-Fluoro-2-(2-isopropoxypyridin-4-yl)-6-isopropyl-phenyl)carbamoyl)sulfamoyl)-N,N-bis(2-methoxyethyl)-1-methyl-1H-pyrazole-5-carboxamide, sodium salt] | ≤ 5 | ≤ 10
CN1CCC(N(C)S(=O)(=O)NC(=O)Nc2c(-c3ccnc(C#N)c3)ccc3c2CCC3)C1 (stereo not shown) [Example 317, 3-(N-Methyl-N-(1-methylpyrrolidin-3-yl)sulfamoyl)-1-(5-(2-cyanopyridin-4-yl)-2,3-dihydro-1H-inden-4-yl)urea] | ≤ 0.5 | ≤ 0.5
CCN1CCC(S(=O)(=O)NC(=O)Nc2c(-c3ccncc3)ccc3c2CCC3)CC1 [Example 101, 1-Ethyl-N-((5-(pyridin-4-yl)-2,3-dihydro-1H-inden-4-yl)carbamoyl)piperidine-4-sulfonamide, potassium salt] | – | ≤ 1
CC(C)c1cc(F)cc(-c2cnn(C)c2)c1NC(=O)NS(=O)(=O)c1cn(C(C)C)cn1 [Example 31, N-((4-Fluoro-2-iso-propyl-6-(1-methyl-1H-pyrazol-4-yl)phenyl)carbamoyl)-1-iso-propyl-1H-imidazole-4-sulfonamide] | ≤ 5 | –
CCc1cc(-c2cc(F)cc(C(C)C)c2NC(=O)NS(=O)(=O)c2ccn(C(C)C)n2)ccn1 [Example 29, N-((2-(2-Ethylpyridin-4-yl)-4-fluoro-6-iso-propylphenyl)carbamoyl)-1-iso-propyl-1H-pyrazole-3-sulfonamide] | ≤ 5 | –
COc1cc(-c2ccc3c(c2NC(=O)NS(=O)(=O)Cc2ccccc2)CCC3)ccn1 [Example 129, N-((5-(2-Methoxypyridin-4-yl)-2,3-dihydro-1H-inden-4-yl)carbamoyl)-1-phenylmethanesulfonamide] | ≤ 5 | –
